Laboratory results published in US12209112B2, “Methods of preventing or treating diseases, conditions, or disorders associated with chemotherapy” (The Chinese University of Hong Kong, priority 2022, dated 2025).
Where two headings read alike, the source gives them in different places.

Experiments:
[1] = test system: C57BL/6J male mice; format: in vivo, mouse
Description: Recombinant human GDF15/MIC-1 protein (CHO-derived) was purchased from PeproTech Inc. (Cranbury, USA) and described in Example 1. […] For in vitro studies, solid lyophilized powder of these two drugs were solubilized at the recommended concentrations in sterile water, and separate aliquots were made and frozen until thawing prior to addition to cell cultures. For in vivo studies, all agents were dissolved in […] normal saline according to the required concentrations (doxorubicin, 5 mg/kg; GDF15, 0.5 mg/kg; dexrazoxane, […]), and the final volume of each intraperitoneal injection was 100 μl. The recommended dose ratio of dexrazoxane to doxorubicin was 10 to 1. In the following examples, 5 mg/kg of doxorubicin was used which correspond to 50 mg/kg of dexrazoxane. The FDA recommends that dexrazoxane be injected within 0.5 hour prior to doxorubicin infusion in individuals. This was followed in the same manner when applying to the test animals.
To induce cardiotoxicity in the mouse, four weekly intraperitoneal injections of doxorubicin at 5 mg/kg were administered. After one dose of doxorubicin at 5-6 mg/kg in a mouse, the level of exposure has been estimated to be similar to that of a human individual being given a standard dose of doxorubicin at approximately 60 mg/m^2. […]
The image processing and analysis software, ImageJ version 1.53K, was used for evaluation of histopathology from mouse experiments. For Masson's trichrome staining, the acquired images were converted from color to grayscale using ImageJ, the blue-stained collagen were segmented (separated) using thresholding, and the threshold areas in a representative microscopic field were quantified. […] Cells containing brown staining (TUNEL-positive cells) were counted in a representative microscopic field for each mouse in each group.

[2] = test system: C57BL/6J male mice; assay: Noninvasive blood pressure in mouse doxorubicin cardiotoxicity model; format: in vivo; conditions: for Day 28 DBP / Day 28 SBP: after doxorubicin 5 mg/kg intraperitoneal once weekly for four weeks (Dox + groups); for Day 28 DBP / Day 28 SBP / Day 0 DBP / Day 0 SBP: n = 4 per group; for Day 0 DBP / Day 0 SBP: before doxorubicin administration
Description: Recombinant human GDF15/MIC-1 protein (CHO-derived) was purchased from PeproTech Inc. (Cranbury, USA) and described in Example 1. […] PubChem identifier number 71384) were purchased from Abcam (Cambridge, UK). For in vitro studies, solid lyophilized powder of these two drugs were solubilized at the recommended concentrations in sterile water, and separate aliquots were made and frozen until thawing prior to addition to cell cultures. […] The recommended dose ratio of dexrazoxane to doxorubicin was 10 to 1. In the following examples, 5 mg/kg of doxorubicin was used which correspond to 50 mg/kg of dexrazoxane. The FDA recommends that dexrazoxane be injected within 0.5 hour prior to doxorubicin infusion in individuals. This was followed in the same manner when applying to the test animals. Ten- to twelve-week old C57BL/6J male mice were purchased from the Laboratory Animal Services Centre of CUHK. They were maintained in specific pathogen-free facility of the CUHK Laboratory Animal Services Centre Research Unit at Prince of Wales Hospital with free access to food and water and maintained in a light/night cycle of 12 hours/12 hours. All mice were fed a standard diet. Blood pressure of animals was measured using the noninvasive CODA® High Throughput System (Torrington, USA) in accordance with the manufacturer's instructions. Measurement platform was prewarmed and maintained at 33-35° C. O-cuffs and VPR-cuffs were used as instructed. Blood pressure of each mouse was measured for at least three cycles. Mice were released and returned to their cages immediately after measurement. Blood pressure was measured twice, once at the beginning of the experiment and once before sacrifice. To induce cardiotoxicity in the mouse, four weekly intraperitoneal injections of doxorubicin at 5 mg/kg were administered. After one dose of doxorubicin at 5-6 mg/kg in a mouse, the level of exposure has been estimated to be similar to that of a human individual being given a standard dose of doxorubicin at approximately 60 mg/m^2.

[3] = test system: hESC-CMs; assay: Real-time PCR of genes important for mitochondrial function; format: cell-based, human
Description: RNA was extracted using TRIzol™ Reagent (Thermo Fisher Scientific, USA) as per manufacturer's protocol. RNase-free reagents and consumables were used. RNA concentration and A260/280 ratio were determined using Synergy HTX Multi-Mode microplate reader (Agilent Technologies, USA).
cDNA was synthesized using the PrimeScript™ RT Master Mix (Takara, Japan) for real-time quantitative polymerase chain reaction (qPCR). Briefly, reverse transcription used 2 μl of 5× PrimeScript™ RT Master Mix, 0.5 μg of total RNA, and RNase-free dH2O added to total mixture volume of 10 μl. The reaction was carried out at 37° C. for 15 minutes and 85° C. for 5 seconds.
qPCR was performed using SYBR Green Master Mix (Promega, USA) as per manufacturer's protocol. A total reaction volume of 10 μl included 5 μl GoTaq® qPCR Master Mix 2×, 0.3 μl 10 nmol/L primers mix, and 30 ng cDNA template. The qPCR condition was: 1 cycle of 95° C. for 2 minutes, 40 cycles of 95° C. for 3 seconds, and 60° C. for 30 seconds. Expression level of genes was quantified using the 2^−ΔΔCT method on a ABI QuantStudio 12-Flex QPCR System W/96 Fast & 384 (Thermo Fisher Scientific, USA). Primer sequences used were summarized as follows for the respective gene sequences (Table 2).

With COc1cccc2c1C(=O)c1c(O)c3c(c(O)c1C2=O)C[C@@](O)(C(=O)CO)C[C@@H]3OC1C[C@H](N)[C@H](O)[C@H](C)O1.Cl (stereo partly drawn) [Dox, (8S,10S)-10-[(3-Amino-2,3,6-trideoxy-L-lyxohexopyranosyl)oxy]-7,8,9,10-tetrahydro-6,8,11-trihydroxy-8-(hydroxyacetyl)-1-methoxynaphthacene-5,12-dione hydrochloride, reference compound] the “cardiac fibrosis (Masson's trichrome)” value ([1]; mouse, in vivo) was “diffuse myocardial interstitial fibrosis as well as perivascular fibrosis”, the “Day 28 DBP” value [2] was 119 ± 7 mmHg and the “Day 28 SBP” value [2] was 146 ± 7 mmHg. For the same compound, the “Day 0 DBP” value [2] was 87 ± 15 mmHg, the “Day 0 SBP” value [2] was 116 ± 13 mmHg and the “expression of genes important for mitochondrial function” value ([3]; hESC-CMs, doxorubicin alone) was “suppressed”.

With “GDF15: commercially available recombinant human GDF-15 protein (PeproTech 120-28C), CHO cell-derived, SEQ ID NO: 1” the “cardiac fibrosis (Masson's trichrome)” value ([1]; mice, pretreatment before doxorubicin, versus doxorubicin only) was “visually and quantitatively reduced”, the “systolic and diastolic blood pressure” value ([2]; GDF15 5 mg/kg intraperitoneal before doxorubicin, compared with doxorubicin only) was “significantly lowered” and the “Day 28 DBP” value [2] was 88 ± 5 mmHg. The “Day 28 SBP” value [2] was 121 ± 5 mmHg, the “Day 0 DBP” value [2] was 83 ± 17 mmHg and the “Day 0 SBP” value [2] was 117 ± 12 mmHg. The “expression of genes important for mitochondrial function” value ([3]; hESC-CMs pretreated with GDF15 prior to doxorubicin exposure) was “improved”.
